Source: patent EP4238971A1, “SUBSTITUTED ISOXAZOLINE DERIVATIVES” (BASF SE, priority 2022, dated 2023)

Tests used:
Type in all cases: in vivo
[1] = tested on: Anthonomus grandis; assay: Boll weevil (Anthonomus grandis) control, insect diet in 96-well microtiter plates; conditions: for mortality in comparison with untreated controls: 2500ppm, egg and larval mortality visually assessed after 5 days
Protocol: (§1) If not otherwise specified, the test solutions were prepared as follows: The active compound was dissolved at the desired concentration in a mixture of 1:1 (vol:vol) distilled water:acetone. The test solution was prepared at the day of use.
(§2) Test solutions were prepared in general at a concentration of 2500ppm (wt/vol).
B.1. Boll weevil (Anthonomus grandis)
For evaluating control of boll weevil, the test unit consisted of 96-well-microtiter plates containing an insect diet and 5-10 A. grandis eggs.
The compounds were formulated using a solution containing 75% v/v water and 25% v/v DMSO. Different concentrations of formulated compounds were sprayed onto the insect diet at 5µl, using a custom-built micro atomizer, at two replications.
After application, microtiter plates were incubated at about 25 ± 1°C and about 75 ± 5 % relative humidity for 5 days. Egg and larval mortality were then visually assessed.

[2] = tested on: Myzus persicae; assay: Green peach aphid (Myzus persicae), mixed life stages, systemic test via artificial diet under membrane; conditions: for mortality in comparison with untreated controls: 2500ppm, aphid mortality visually assessed after 3 days
Protocol: as §1, §2
B.2. Green peach aphid (Myzus persicae) (mixed life stages)
For evaluating control of Green Peach Aphid through systemic means the test unit consisted of 96-well-microtiter plates containing liquid artificial diet under an artificial membrane. The compounds were formulated using a solution containing 75% v/v water and 25% v/v DMSO. Different concentrations of formulated compounds were pipetted into the aphid diet, using a custom-built pipette, at two replications. After application, 5 - 8 adult aphids were placed on the artificial membrane inside the microtiter plate wells. The aphids were then allowed to suck on the treated aphid diet and incubated at about 23 ± 1°C and about 50 ± 5 % relative humidity for 3 days. Aphid mortality and fecundity was then visually assessed.

[3] = tested on: Heliothis virescens; assay: Tobacco budworm (Heliothis virescens) control, insect diet in 96-well microtiter plates; conditions: for mortality in comparison with untreated controls: 2500ppm, egg and larval mortality visually assessed after 5 days
Protocol: as §1, §2
B.3. Tobacco budworm (Heliothis virescens)
For evaluating control of Tobacco Budworm, the test unit consisted of 96-well-microtiter plates containing an insect diet and 15-25 H. virescens eggs. The compounds were formulated using a solution containing 75% v/v water and 25% v/v DMSO. Different concentrations of formulated compounds were sprayed onto the insect diet at 10µl, using a custom-built micro atomizer, at two replications. After application, microtiter plates were incubated at about 28 ± 1°C and about 80 ± 5 % relative humidity for 5 days. Egg and larval mortality was then visually assessed.

[4] = tested on: Aedes aegypti; assay: whole plant or invertebrate; conditions: larval mortality visually assessed after 2 days; for mortality in comparison with untreated controls: 2500ppm
Protocol: as §1, §2
B.4. Yellow fever mosquito (Aedes aegypti)
For evaluating control of Yellow Fever Mosquito, the test unit consisted of 96-well-microtiter plates containing 200µl of tap water per well and 5-15 freshly hatched A. aegypti larvae. The active compounds were formulated using a solution containing 75% (v/v) water and 25% (v/v) DMSO. Different concentrations of formulated compounds or mixtures were sprayed onto the insect diet at 2.5µl, using a custom-built micro atomizer, at two replications.
After application, microtiter plates were incubated at 28 ± 1°C, 80 ± 5 % RH for 2 days. Larval mortality was then visually assessed.

[5] = tested on: Plutella xylostella; assay: Diamond back moth (Plutella xylostella), cabbage leaf disc dip test; conditions: for mortality in comparison with untreated controls: 300ppm, 3rd instar larvae, mortality recorded 72 hours after treatment
Protocol: B.5. Diamond back moth (Plutella xylostella)
The active compound was dissolved at the desired concentration in a mixture of 1:1 (vol:vol) distilled water: acetone. Surfactant (Kinetic) was added at a rate of 0.01% (vol/vol). The test solution was prepared at the day of use. Cabbage leaf discs (60mm in diameter) were dipped in test solution and air-dried. Treated leaves were placed in petri dishes lined with moistened filter paper and inoculated with ten 3rd instar larvae. Mortality was recorded 72 hours after treatment. Feeding damages were also recorded using a scale of 0-100%.

[6] = tested on: Spodoptera eridania; assay: Southern armyworm (Spodoptera eridania), 2nd instar larvae, sprayed lima bean plants; conditions: for mortality in comparison with untreated controls: 300ppm, 2nd instar larvae, assessed 4 days after treatment
Protocol: B.7. Southern armyworm (Spodoptera eridania), 2nd instar larvae
The active compounds were formulated by a Tecan liquid handler in 100% cyclohexanone as a 10'000 ppm solution supplied in tubes. The 10'000 ppm solution was serially diluted in 100% cyclohexanone to make interim solutions. These served as stock solutions for which final dilutions were made by the Tecan in 50% acetone:50% water (v/v) into 10 or 20ml glass vials. A nonionic surfactant (Kinetic®) was included in the solution at a volume of 0.01% (v/v). The vials were then inserted into an automated electrostatic sprayer equipped with an atomizing nozzle for application to plants/insects. Lima bean plants (variety Sieva) were grown 2 plants to a pot and selected for treatment at the 1st true leaf stage. Test solutions were sprayed onto the foliage by an automated electrostatic plant sprayer equipped with an atomizing spray nozzle. The plants were dried in the sprayer fume hood and then removed from the sprayer. Each pot was placed into perforated plastic bags with a zip closure. Ten to 11 armyworm larvae were placed into the bag and the bags zipped closed. Test plants were maintained in a growth room at about 25°C and about 20-40% relative humidity for 4 days, avoiding direct exposure to fluorescent light (14:10 light:dark photo-period) to prevent trapping of heat inside the bags. Mortality and reduced feeding were assessed 4 days after treatment, compared to untreated control plants.

[7] = tested on: Bemisia argentifolii; assay: Silverleaf whitefly (Bemisia argentifolii) adults, sprayed cotton plants; conditions: 300 ppm; adults; assessed 3 days after treatment
Protocol: B.8. Silverleaf whitefly (Bemisia argentifolii) (adults)
The active compounds were formulated by a Tecan liquid handler in 100% cyclohexanone as a 10,000-ppm solution supplied in tubes. The 10,000-ppm solution was serially diluted in 100% cyclohexanone to make interim solutions. These served as stock solutions for which final dilutions were made by the Tecan in 50% acetone:50% water (v/v) into 5 or 10ml glass vials. A nonionic surfactant (Kinetic®) was included in the solution at a volume of 0.01% (v/v). The vials were then inserted into an automated electrostatic sprayer equipped with an atomizing nozzle for application to plants/insects. Cotton plants at the cotyledon stage (one plant per pot) were sprayed by an automated electrostatic plant sprayer equipped with an atomizing spray nozzle. The plants were dried in the sprayer fume hood and then removed from the sprayer. Each pot was placed into a plastic cup and about 10 to 12 whitefly adults (approximately 3-5 days old) were introduced. The insects were collected using an aspirator and a nontoxic Tygon® tubing connected to a barrier pipette tip. The tip, containing the collected insects, was then gently inserted into the soil containing the treated plant, allowing insects to crawl out of the tip to reach the foliage for feeding. Cups were covered with a reusable screened lid. Test plants were maintained in a growth room at about 25°C and about 20-40% relative humidity for 3 days, avoiding direct exposure to fluorescent light (14:10 light:dark photoperiod) to prevent trapping of heat inside the cup. Mortality was assessed 3 days after treatment, compared to untreated control plants.

[8] = tested on: Dichromothrips corbetti; assay: Orchid thrips (Dichromothrips corbetti), floral-immersion technique; conditions: for mortality in comparison with untreated controls: 300ppm, adult thrips, mortality recorded 72 hours after treatment
Protocol: B.6. Orchid thrips (Dichromothrips corbetti)
Dichromothrips corbetti adults used for bioassay were obtained from a colony maintained continuously under laboratory conditions. For testing purposes, the test compound was diluted in a 1:1 mixture of acetone:water (vol:vol), plus Kinetic at a rate of 0.01% v/v.
Thrips potency of each compound was evaluated by using a floral-immersion technique. Each orchid petal was dipped into treatment solution and allowed to dry in Petri dishes. Treated petals were placed into individual re-sealable plastic along with about 20 adult thrips. All test arenas were held under dark condition and a temperature of about 28°C for duration of the assay. The percent mortality was recorded 72 hours after treatment.

| Compound | mortality in comparison with untreated controls [1] | mortality in comparison with untreated controls [2] | mortality in comparison with untreated controls [3] | mortality in comparison with untreated controls [4] | mortality in comparison with untreated controls [5] | mortality in comparison with untreated controls [6] | mortality in comparison with untreated controls [7] | mortality in comparison with untreated controls [8] | mortality at 2500 ppm ([1]; Anthonomus grandis, 120 h, read-out: mortality in comparison with untreated controls) | mortality at 2500 ppm ([2]; Myzus persicae, 72 h, read-out: mortality in comparison with untreated controls) | mortality at 2500 ppm ([3]; Heliothis virescens, 120 h, read-out: mortality in comparison with untreated controls) | mortality at 2500 ppm ([4]; Aedes aegypti, 48 h, read-out: mortality in comparison with untreated controls) | mortality at 300 ppm ([5]; Plutella xylostella, foliar, 72 h, read-out: mortality in comparison with untreated controls) | mortality at 300 ppm ([8]; Dichromothrips corbetti, 72 h, read-out: mortality in comparison with untreated controls) | mortality at 300 ppm ([6]; Spodoptera eridania, 96 h, read-out: mortality in comparison with untreated controls) |
| --- | --- | --- | --- | --- | --- | --- | --- | --- | --- | --- | --- | --- | --- | --- | --- |
| Fc1c(Cl)cc(C2(C(F)(F)F)CC(Nc3ccc(Cl)c(-n4cncn4)c3)=NO2)cc1Cl (centres unmarked) [I-13] | at least 75% | at least 75% | at least 75% | at least 75% | at least 75% | at least 75% | at least 75% | – | – | – | – | – | – | – | – |
| N#Cc1ccc(NC2=NOC(c3ccc(F)c(C(F)(F)F)c3)(C(F)(F)F)C2)cc1-n1cncn1 (centres unmarked) [I-8] | – | – | – | – | at least 75% | at least 75% | at least 75% | at least 75% | – | – | – | – | – | – | – |
| CN(C1=NOC(c2cc(Cl)cc(Cl)c2)(C(F)(F)F)C1)c1ccc(C#N)c(-n2cncn2)c1 (centres unmarked) [I-7] | at least 75% | at least 75% | at least 75% | at least 75% | at least 75% | at least 75% | – | at least 75% | – | – | – | – | – | – | – |
| N#Cc1ccc(NC2=NOC(c3cc(Cl)c(F)c(Cl)c3)(C(F)(F)F)C2)cc1-n1cncn1 (centres unmarked) [I-4, 4-[[5-(3,5-dichloro-4-fluoro-phenyl)-5-(trifluoromethyl)-4H-isoxazol-3-yl]amino]-2-(1,2,4-triazol-1-yl)benzonitrile] | – | – | – | – | – | – | – | – | ≥ 75% | ≥ 75% | ≥ 75% | ≥ 75% | ≥ 75% | ≥ 75% | ≥ 75% |
| N#Cc1ccc(NC2=NOC(c3cccc(C(F)(F)F)c3)(C(F)(F)F)C2)cc1-n1cncn1 (centres unmarked) [I-5] | at least 75% | at least 75% | at least 75% | at least 75% | at least 75% | at least 75% | – | at least 75% | – | – | – | – | – | – | – |
| N#Cc1ccc(NC2=NOC(c3cc(Cl)cc(Cl)c3)(C(F)(F)F)C2)cc1-n1cncn1 (centres unmarked) [I-1] | at least 75% | at least 75% | at least 75% | at least 75% | at least 75% | at least 75% | – | at least 75% | – | – | – | – | – | – | – |
| Fc1c(Cl)cc(C2(C(F)(F)F)CC(Nc3ccc(Cl)c(-n4ccc(C(F)(F)F)n4)c3)=NO2)cc1Cl (centres unmarked) [I-15] | – | – | at least 75% | at least 75% | – | at least 75% | at least 75% | at least 75% | – | – | – | – | – | – | – |
| CCN(C1=NOC(c2ccc(F)c(Cl)c2)(C(F)(F)F)C1)c1ccc(C#N)c(-n2cncn2)c1 (centres unmarked) [I-10] | at least 75% | at least 75% | at least 75% | at least 75% | at least 75% | at least 75% | – | at least 75% | – | – | – | – | – | – | – |
| N#Cc1ccc(NC2=NOC(c3ccc(F)c(Cl)c3)(C(F)(F)F)C2)cc1-n1cncn1 (centres unmarked) [I-6] | at least 75% | at least 75% | at least 75% | at least 75% | at least 75% | at least 75% | – | at least 75% | – | – | – | – | – | – | – |
| CCOC(=O)N(C1=NOC(c2cc(Cl)c(F)c(Cl)c2)(C(F)(F)F)C1)c1ccc(Cl)c(-n2cncn2)c1 (centres unmarked) [I-25] | – | – | at least 75% | at least 75% | at least 75% | at least 75% | at least 75% | at least 75% | – | – | – | – | – | – | – |
| CCN(C1=NOC(c2cc(Cl)c(F)c(Cl)c2)(C(F)(F)F)C1)c1ccc(Cl)c(-n2cncn2)c1 (centres unmarked) [I-19] | at least 75% | at least 75% | at least 75% | at least 75% | at least 75% | at least 75% | – | at least 75% | – | – | – | – | – | – | – |
